Laboratory results reported in patent publication US20240082416A1, “AMATOXIN ANALOGS AND USES THEREOF” (THE UNIVERSITY OF BRITISH COLUMBIA, priority 2020, published 2024).
Starred links: 1 amine or outer side, 2 acyl side, 3 side chain; linkers in the order of their positions; H or OH if unused. Positions of bridges follow the written chain, without caps; N, C: chain ends. Non-standard residues stand in square brackets, D forms with d. Residues, ends and D or L forms follow the SMILES beside them. Trp(2-yl) = O=C([C@H](Cc1c([*:3])[nH]c2ccccc12)N[*:1])[*:2]; Pro(trans-4-guanidino) = N=C(N)N[C@H]1CN[C@H](C(=O)O)C1; Pro(4R-SH) = O=C([C@@H]1C[C@@H](S[*:3])CN1[*:1])[*:2]; Ile(4R-OH,5-OH) = C[C@H]([C@H](N)C(=O)O)[C@@H](O)CO; X1 = N#C[C@@H]1C[C@@H](C(=O)[*:2])N([*:1])C1; Pro(4R-NH2) = N[C@H]1CN[C@H](C(=O)O)C1

Legend:
[1] = Viability assay against CHO cells (MTT colorimetric assay); format: cell-based, Chinese hamster; conditions: Chinese hamster, CHO cells, 72 h, replicates n = 1, 2, 3, read-out: % viable cells; for viability at 72 h, 1e-05 M: 1e-005 M; for viability at 72 h, 1.25e-06 M: 1.25e-006 M; for viability at 72 h, 1.56e-07 M: 1.56e-007 M; for viability at 72 h, 2e-05 M: 2e-005 M; for viability at 72 h, 2.5e-06 M: 2.5e-006 M; for viability at 72 h, 3.125e-07 M: 3.125e-007 M; for viability at 72 h, 5e-06 M: 5e-006 M; for viability at 72 h, 6.25e-07 M: 6.25e-007 M; for viability at 72 h, 7.8e-08 M: 7.8e-008 M
Description: (f) Cell culture: Cells were cultured in Minimum Essential Medium Eagle—Alpha Modification (α-MEM) or […] Dulbecco's Modified Eagle Medium (DMEM), purchased from Gibco. […] All cell culture plastic ware was obtained from Coming or Falcon. Cells were cultured at 37° C. in a humidified chamber with 5% CO2. When used in cell culture, DMSO was purified by filtration through a […] filter. All experiments were carried out in a laminar flow culture cabinet, unless otherwise noted.
Immortalized CHO cells had been stored in liquid nitrogen. To revive cells, a 1-mL tube of the frozen cells in medium containing 10% DMSO was warmed in a 30° C. water bath and diluted with 9 mL of fresh media. Media contained 10% FBS and 100 U/mL penicillin and […] streptomycin, unless otherwise indicated. The cells were incubated in a T-25 flask at 37° C. at 5% CO2. After 24 hours, the medium was aspirated and replaced with fresh medium. When cells reached a level of 90-100% confluence, they were sub-cultured. […] Once the cells were detached from the tissue culture flask, 3-5 mL media was added to quench the trypsin and the mixture was transferred to a 10 mL centrifuge tube. The mixture was centrifuged for 5 min at […], and the supernatant was discarded. The cells were suspended in fresh medium, diluted as required, and transferred to a new culture flask.
To assay cell viability, a nearly confluent tissue culture flask was trypsinized, and the cells were counted following treatment with Trypan blue, using a hemocytometer. The cells were then diluted to the appropriate stock concentrations in fresh medium and transferred in 100 μL to a 96-well plate using a multi-channel pipette. The number of cells plated varied from experiment to experiment. These were incubated at 37° C. and 5% CO2 for a 24-hour period to allow for adherence. The medium was aspirated, and fresh medium was added, which contained the desired additives in DMSO. The cells were then re-incubated for 72 h. At the completion of the experiment, a 100 μL aliquot of 25 mg/mL MTT in phosphate-buffered saline (PBS) was added to each well. The plate was incubated three hours further to allow for the formation of the formazan product in viable cells. The media was carefully aspirated, and the purple product was solubilized in DMSO. […] Data was processed in Microsoft Excel and GraphPad Prism. Experiments were performed in triplicates unless otherwise noted, and the error bars were calculated as the standard error of the mean.
Each cell line was plated in a 96-well plate, with 100 μL of the stock solution per well (5000 cells per well) and incubated for 24 hours. […] The cells were incubated for 72 hours, at which point viability was assessed as described.

Pol II = target: T1, Pol II (Homo sapiens, UniProt P24928); test: In vitro transcription runoff assay using HeLaScribe nuclear extract; format: biochemical; conditions: for Transcription activity E (%): mean ± standard deviation
T1 construct: HeLaScribe® nuclear extract containing Pol II and all other transcription factors; purchased Promega; host or cells: HeLa nuclear extract (endogenous protein)
Source text: (h) In vitro transcription assay of synthetic amanitins containing analogs of Hyp: Primers were purchased from IDT via standard phosphoramidite chemistry. dNTP and rNTP were purchased from Thermofisher. GoTaq polymerase and HeLaScribe*Nuclear Extract in vitro Transcription System was purchased from Promega. Taq polymerase was purchased from NEB. [^32P] α-dGTP (3000 Ci/mmol 10 mCi/ml EasyTide) and [^32P] α-GTP (3000 Ci/mmol 10 mCi/ml EasyTide) were purchased from Perkin Elmer. QIAquick PCR purifcation kit was purchased from Qiagen. AcGFP1-N1 was a gift (Addgene plasmid #54705; http://n2t.net/addgene:54705; RRID:Addgene_54705). DNA Primer sequences were:
The DNA template for transcription runoff was synthesized by PCR with template pAcGFP-N1, and primers P1 and P2. To a final volume of 20 μL, 1 x GoTaq Buffer, 250 μM of each dNTP, 500 nM of each primers P1 and P2, […] pAcGFP-N1 and 0.05 U/μL GoTaq were employed to thermocycle for 30 cycles (30 s at 95° C., 30 s at 50° C. and 60 s at 72° C., Bio-Rad). A 1 μL aliquot of the amplified solution was resolved with 6×DNA loading dye in a 1% agarose gel containing […] and then visualized using GelDoc XR imager (Bio-Rad). Purification was completed via QIAquick PCR purification kit (Qiagen). The radioactive chromatographic standard was synthesized by PCR with template pAcGFP-N1, and primers P3 and P4. To a final volume of 50 μL, 1 x Thermopol Buffer, 200 μM of each dNTP, 500 nM of each primers P3 and P4, 10 pg/μL pAcGFP-N1 and 0.02 U/μL Vent polymerase, 1 μL [^32P] α-dGTP were employed to thermocycle for 30 cycles (30 s at 95° C., 30 s at 62° C. and 30 s at 72° C., Bio-Rad). A 1 μL aliquot of the amplified solution was resolved with 6×DNA loading dye in 8% denaturing PAGE and then visualized by autoradiography via the Typhoon 9200 imager (Molecular namics-Amersham-GE). Purification was completed via QIAquick PCR purification kit (Qiagen). The transcription runoff assay was modified from HeLaScribe® Nuclear Extract in vitro Transcription System (Promega). […]. The pellet was resolved by 8% denaturing PAGE and then visualized by autoradiography via the Typhoon 9200 imager (Molecular dynamics-Amersham-GE). Dosimetry was calculated by ImageJ, and the 3 parameter logistic fit was completed by Origin 2019 (OriginLab). […]
All data were presented in mean±standard deviation (n=3).

[2] = Cell viability assay (BrdU incorporation) on HEK293-OATP1B3 cells; format: cell-based, human; conditions: human, HEK293 cells overexpressing OATP1B3 (HEK293-OATP1B3); highest used concentration of 1 μM; HEK293-OATP1B3 cells
Description: . HEK293 and HEK-OATP1B3 cells were plated at 2.5×10^3 cells/well in a 1:1 mixture of Ham's F12 with DMEM containing 10% charcoal-stripped fetal calf serum (FCS) onto poly-D-lysine-coated 96-well plates and grown for 24 hours. Subsequently, cells were incubated with amanitin analogs at 8 different concentrations (1×10^−6 M to 1.28×10^−11 M, serial 1:5 dilutions). Following 96 h of drug exposure, cell viability was determined by a BrdU incorporation assay (Cell Proliferation ELISA, BrdU, Roche) and chemiluminescence was measured using a FLUOstar Optima plate reader (BMG LABtech). Data analysis was performed with GraphPad Prism 8 (GraphPad Software, Inc., La Jolla, CA) software to plot curve fits.

[3] = IC50 (nM), Table 11, 3 parameter logistic fit
[4] = IC50 (nM), Table 12, n = 3, high values estimated from activity at [I]=1.0 μM

| Structure (SMILES) | viability at 72 h, 1e-05 M [1] [%] | viability at 72 h, 1.25e-06 M [1] [%] | viability at 72 h, 1.56e-07 M [1] [%] | viability at 72 h, 2e-05 M [1] [%] | viability at 72 h, 2.5e-06 M [1] [%] | viability at 72 h, 3.125e-07 M [1] [%] | viability at 72 h, 5e-06 M [1] [%] | viability at 72 h, 6.25e-07 M [1] [%] | viability at 72 h, 7.8e-08 M [1] [%] | Transcription activity E (%) (Pol II; 30 nM) | Transcription activity E (%) (Pol II; 100 nM) | Transcription activity E (%) (Pol II; 300 nM) | Transcription activity E (%) (Pol II; 1000 nM) | Transcription activity E (%) (Pol II; 3000 nM) | IC50 (Pol II; IC50) [nM] | IC50 (Pol II; [3]) [nM] | IC50 (Pol II; [4]) [nM] | IC50 fold higher than that of the natural product (Pol II; vs α-amanitin) | viability at 96 h, 1 µM [2] [%] | Transcription activity E (%) (Pol II; 10 nM) |
| --- | --- | --- | --- | --- | --- | --- | --- | --- | --- | --- | --- | --- | --- | --- | --- | --- | --- | --- | --- | --- |
| CC[C@H](C)[C@@H]1NC(=O)CNC(=O)[C@@H]2Cc3c([nH]c4ccccc34)SC[C@H](NC(=O)CNC1=O)C(=O)N[C@@H](CC(N)=O)C(=O)N1C[C@H](NC(=N)N)C[C@H]1C(=O)N[C@@H]([C@@H](C)[C@@H](O)CO)C(=O)N2 [Compound 7, Gdn-Pro-amanitin] (cyclo(CN[Pro(trans-4-guanidino)][Ile(4R-OH,5-OH)][Trp(2-yl)]GIG); thioether 1-5) | 100 | 89 | 88 | 99 | 90 | 85 | 93 | 88 | 96 | 77.3 ± 9.0 | 76.1 ± 13.2 | 56.6 ± 11.6 | 31.3 ± 5.8 | 14.1 ± 7.1 | ~400 | 410 ± 80 | 410 ± 80 | approximately 50 fold | 86 |  |
| CC[C@H](C)[C@@H]1NC(=O)CNC(=O)[C@@H]2Cc3c([nH]c4ccccc34)SC[C@H](NC(=O)CNC1=O)C(=O)N[C@@H](CC(N)=O)C(=O)N1C[C@H](S)C[C@H]1C(=O)N[C@@H]([C@@H](C)[C@@H](O)CO)C(=O)N2 [Compound 5, SH-Pro-amanitin] (cyclo(CN[Pro(4R-SH)][Ile(4R-OH,5-OH)][Trp(2-yl)]GIG); thioether 1-5) | 94 | 93 | 93 | 106 | 91 | 94 | 100 | 98 | 94 | 99.6 ± 11.6 | 91.2 ± 18.5 | 71.2 ±19.0 | 50.3 ± 20.8 |  | 910 ± 230 | 910 ± 330 | 910 ± 330 |  | 50 | 78.5 ± 26.6 |
| CC[C@H](C)[C@@H]1NC(=O)CNC(=O)[C@@H]2Cc3c([nH]c4ccccc34)SC[C@H](NC(=O)CNC1=O)C(=O)N[C@@H](CC(N)=O)C(=O)N1C[C@H](N)C[C@H]1C(=O)N[C@@H]([C@@H](C)[C@@H](O)CO)C(=O)N2 [Compound 6, NH2-Pro-amanitin] (cyclo(CN[Pro(4R-NH2)][Ile(4R-OH,5-OH)][Trp(2-yl)]GIG); thioether 1-5) | 91 | 95 | 95 | 92 | 86 | 86 | 87 | 92 | 96 | 91.7 ± 9.3 | 82.3 ± 12.8 | 55.0 ± 23.6 | 38.6 ± 18.3 | 19.8 ± 9.9 | 550 ± 90 | 550 ± 90 | 550 ± 90 |  | 33 |  |
| CC[C@H](C)[C@@H]1NC(=O)CNC(=O)[C@@H]2Cc3c([nH]c4ccccc34)SC[C@H](NC(=O)CNC1=O)C(=O)N[C@@H](CC(N)=O)C(=O)N1C[C@H](C#N)C[C@H]1C(=O)N[C@@H]([C@@H](C)[C@@H](O)CO)C(=O)N2 [Compound 4, CN-Pro-amanitin] (cyclo(CN[X1][Ile(4R-OH,5-OH)][Trp(2-yl)]GIG); thioether 1-5) | 110 | 102 | 102 | 121 | 101 | 99 | 103 | 102 |  | 64.8 ± 7.4 | 74.0 ± 13.0 | 72.4 ± 9.7 | 52.3 ± 17.0 |  |  | 480 ± 380 | 480 ± 380 |  | 43 | 80.7 ± 7.9 |
